Measurements from PubChem BioAssay AID1259407 (Chemical Carcinogenesis Research Information System (CCRIS), 2018).
The source made the active and inactive calls. How the calls were made is not given here.

System: CCRIS mutagenicity, Ames/micronucleus/aberration tests
Test: CCRIS mutagenicity studies

SMILES: CN(C)N=O
- mutagenic call (End Point: IN VITRO CHROMOSOMAL ABERRATIONS, Test System: CHL/IU CELLS, Metabolic Activation: RAT, LIVER, S-9, PHENOBARBITAL AND 5,6-BENZOFLAVONE): active; positive (structural changes)
- mutagenic call (End Point: IN VITRO CHROMOSOMAL ABERRATIONS, Test System: CHO CELLS, Metabolic Activation: NONE): inactive; negative
- mutagenic call (End Point: IN VITRO MICRONUCLEUS, Test System: CHL/IU CELLS, Metabolic Activation: RAT, LIVER, S-9, PHENOBARBITAL AND 5,6-BENZOFLAVONE): active; positive
- mutagenic call (End Point: IN VIVO MICRONUCLEUS, Test System: HEPATOCYTES, Species: RAT, Strain/Sex: FISHER 344 OR SD/MALE, Route: ORAL OR IP): active; positive
- mutagenic call (End Point: IN VIVO MICRONUCLEUS, Test System: PERIPHERAL BLOOD RETICULOCYTES, Species: RAT, Strain/Sex: FISHER 344 OR SD/MALE, Route: ORAL OR IP): inactive; negative
- mutagenic call (End Point: In vivo micronucleus, Test System: Liver, Species: Mouse, Strain/Sex: Big Blue/Male, Route: Oral): active; positive for laci mutation frequency in liver; high percentage of g:c to t:a t
- mutagenic call (End Point: In vivo micronucleus, Test System: Micronucleated hepatocytes, Species: Rat, Strain/Sex: F344/Male, Route: Oral): active; positive (p<0.01)
- mutagenic call (Test System: AMES SALMONELLA TYPHIMURIUM, Strain/Indicator: NM2000, Metabolic Activation: RAT, LIVER, S-9, ISONIAZID, Method: PREINCUBATION): active; positive
- mutagenic call (Test System: AMES SALMONELLA TYPHIMURIUM, Strain/Indicator: NM2009, Metabolic Activation: RAT, LIVER, S-9, ISONIAZID, Method: PREINCUBATION): active; positive
- mutagenic call (Test System: AMES SALMONELLA TYPHIMURIUM, Strain/Indicator: TA92, Metabolic Activation: MOUSE, LIVER, S-10, Method: PREINCUBATION): active; positive
- mutagenic call (Test System: AMES SALMONELLA TYPHIMURIUM, Strain/Indicator: TA97, Metabolic Activation: NONE, Method: STANDARD PLATE): inactive; negative
- mutagenic call (Test System: AMES SALMONELLA TYPHIMURIUM, Strain/Indicator: TA97, Metabolic Activation: RAT, LIVER, S-9, AROCLOR 1254, Method: STANDARD PLATE): inactive; negative
- mutagenic call (Test System: AMES SALMONELLA TYPHIMURIUM, Strain/Indicator: TA98, Metabolic Activation: NONE, Method: STANDARD PLATE): inactive; negative
- mutagenic call (Test System: AMES SALMONELLA TYPHIMURIUM, Strain/Indicator: TA98, Metabolic Activation: RAT, LIVER, S-9, AROCLOR 1254, Method: STANDARD PLATE): inactive; negative
- mutagenic call (Test System: AMES SALMONELLA TYPHIMURIUM, Strain/Indicator: TA100, Metabolic Activation: HAMSTER, LIVER, S-9, AROCLOR 1254, NADPH GENERATING SYSTEM, CYTOSOL, Method: PREINCUBATION): active; positive
- mutagenic call (Test System: AMES SALMONELLA TYPHIMURIUM, Strain/Indicator: TA100, Metabolic Activation: HAMSTER, LIVER, S-9, Method: PREINCUBATION): active; positive
- mutagenic call (Test System: AMES SALMONELLA TYPHIMURIUM, Strain/Indicator: TA100, Metabolic Activation: HUMAN, LIVER, S-9, Method: PREINCUBATION): inactive; negative
- mutagenic call (Test System: AMES SALMONELLA TYPHIMURIUM, Strain/Indicator: TA100, Metabolic Activation: MICROSOMES, CYTOSOL, Method: PREINCUBATION): active; positive
- mutagenic call (Test System: AMES SALMONELLA TYPHIMURIUM, Strain/Indicator: TA100, Metabolic Activation: MOUSE, INTACT UROTHELIAL CELLS, Method: FLUCTUATION TEST): active; positive
- mutagenic call (Test System: AMES SALMONELLA TYPHIMURIUM, Strain/Indicator: TA100, Metabolic Activation: MOUSE, LIVER, S-9, PHENOBARBITAL AND BETA-NAPHTHOFLAVONE, Method: PREINCUBATION): active; positive
- mutagenic call (Test System: AMES SALMONELLA TYPHIMURIUM, Strain/Indicator: TA100, Metabolic Activation: MOUSE, LIVER, S-9, PHENOBARBITAL, BETA-NAPHTHOFLAVONE, ISOSAFROLE, ETHANOL, PREGNENOLONE AND 16ALPHA-CARBONITRILE, Method: PREINCUBATION): active; positive
- mutagenic call (Test System: AMES SALMONELLA TYPHIMURIUM, Strain/Indicator: TA100, Metabolic Activation: NONE, Method: PREINCUBATION): inactive; negative
- mutagenic call (Test System: AMES SALMONELLA TYPHIMURIUM, Strain/Indicator: TA100, Metabolic Activation: NONE, Method: STANDARD PLATE): inactive; negative
- mutagenic call (Test System: AMES SALMONELLA TYPHIMURIUM, Strain/Indicator: TA100, Metabolic Activation: PIG, LIVER, S-9, Method: PREINCUBATION): inactive; negative
- mutagenic call (Test System: AMES SALMONELLA TYPHIMURIUM, Strain/Indicator: TA100, Metabolic Activation: RABBIT, LIVER, S-9, Method: STANDARD PLATE): inactive; negative
- mutagenic call (Test System: AMES SALMONELLA TYPHIMURIUM, Strain/Indicator: TA100, Metabolic Activation: RABBIT, LUNG, S-9, Method: STANDARD PLATE): inactive; negative
- mutagenic call (Test System: AMES SALMONELLA TYPHIMURIUM, Strain/Indicator: TA100, Metabolic Activation: RABBIT, NASAL, S-9, Method: STANDARD PLATE): inactive; negative
- mutagenic call (Test System: AMES SALMONELLA TYPHIMURIUM, Strain/Indicator: TA100, Metabolic Activation: RAT, INTACT UROTHELIAL CELLS, Method: FLUCTUATION TEST): active; positive
- mutagenic call (Test System: AMES SALMONELLA TYPHIMURIUM, Strain/Indicator: TA100, Metabolic Activation: RAT, LIVER, S-9, AROCLOR 1254, (PREGNANT MARE SERUM), Method: PREINCUBATION): active; positive
- mutagenic call (Test System: AMES SALMONELLA TYPHIMURIUM, Strain/Indicator: TA100, Metabolic Activation: RAT, LIVER, S-9, AROCLOR 1254, Method: PREINCUBATION): active; positive
